Active and inactive are the calls of the source. The rule behind the calls is not given here.
What was measured:
[1] = test system: Mus musculus; experiment: Protective effect in ovariectomy induced osteoporosis C57BL/6 mouse model assessed as inhibition of OVX-induced osteoblast activity by analysing osteoblast number in proximal femur at 3 mg/kg, ip and measured after 6 weeks by TRAP staining based microscopic analysis; assay type: functional, organism-based
[2] = test system: Mus musculus; experiment: Protective effect in ovariectomy induced osteoporosis C57BL/6 mouse model assessed as inhibition of OVX-induced osteoclast activity by analysing osteoclast area in proximal femur at 3 mg/kg, ip and measured after 6 weeks by H and E staining based microscopic analysis; assay type: functional, organism-based
[3] = test system: BMMC; experiment: (§1) Anti-osteoclastogenic activity in C57/BL6 mouse BMMC cells assessed as inhibition of RANKL-induced osteoclast differentiation at 0.1 uM incubated for 5 to 7 days in presence of M-CSF by TRAP staining based microscopic analysis relative to control; assay type: functional; conditions: time 5-7 day
[4] = test system: BMMC; experiment: Anti-osteoclastogenic activity in C57/BL6 mouse BMMC cells assessed as inhibition of RANKL-induced osteoclast differentiation incubated for 5 to 7 days in presence of M-CSF by TRAP staining based microscopic analysis relative to control; assay type: functional, cell-based
[5] = Microsomal stability in mouse liver microsomes assessed as half life at 1 uM and measured upto 60 mins by LC-MS/ MS analysis; assay type: ADME, Microsome
[6] = Microsomal stability in mouse liver microsomes assessed as intrinsic clearance at 1 uM and measured upto 60 mins by LC-MS/ MS analysis; assay type: ADME, Microsome; conditions: read-out: CLH
[7] = Microsomal stability in mouse liver microsomes assessed as parent compound remaining at 1 uM and measured after 60 mins by LC-MS/ MS analysis; assay type: ADME, Microsome; conditions: read-out: Stability
[8] = Tmax in ICR mouse at 1 mg/kg, iv and measured upto 24 hrs by LC-MS/MS analysis; assay type: ADME, organism-based; conditions: in vivo
[9] = Cmax in ICR mouse at 1 mg/kg, iv and measured upto 24 hrs by LC-MS/MS analysis; assay type: ADME, organism-based; set-up: dose 1 mg/kg, time < 24 hrs, route iv; conditions: in vivo
[10] = AUCt in ICR mouse at 1 mg/kg, iv and measured upto 24 hrs by LC-MS/MS analysis; assay type: ADME, organism-based; set-up: dose 1 mg/kg, time < 24 hrs, route iv; conditions: in vivo
[11] = AUC (0 to infinity) in ICR mouse at 1 mg/kg, iv and measured upto 24 hrs by LC-MS/MS analysis; assay type: ADME, organism-based; set-up: dose 1 mg/kg, time < 24 hrs, route iv; conditions: in vivo
[12] = Apparent volume of distribution in ICR mouse at 1 mg/kg, iv and measured upto 24 hrs by LC-MS/MS analysis; assay type: ADME, organism-based; conditions: in vivo, read-out: Vz
[13] = Clearance in ICR mouse at 1 mg/kg, iv and measured upto 24 hrs by LC-MS/MS analysis; assay type: ADME, organism-based; conditions: in vivo
[14] = Tmax in ICR mouse at 10 mg/kg, po and measured upto 24 hrs by LC-MS/MS analysis; assay type: ADME, organism-based; conditions: in vivo
[15] = AUCt in ICR mouse at 10 mg/kg, po and measured upto 24 hrs by LC-MS/MS analysis; assay type: ADME, organism-based; set-up: dose 10 mg/kg, time < 24 hrs, route po; conditions: in vivo
[16] = AUC (0 to infinity) in ICR mouse at 10 mg/kg, po and measured upto 24 hrs by LC-MS/MS analysis; assay type: ADME, organism-based; set-up: dose 10 mg/kg, time < 24 hrs, route po; conditions: in vivo
[17] = Oral bioavailability in ICR mouse at 10 mg/kg and measured upto 24 hrs by LC-MS/MS analysis; assay type: ADME, organism-based; conditions: in vivo
[18] = test system: BMMC; experiment: Anti-osteoclastogenic activity in C57/BL6 mouse BMMC cells assessed as reduction in RANKL-induced TRAP mRNA expression level at 0.1 uM incubated for 1 to 5 days in presence of M-CSF by qRT-PCR analysis; assay type: functional, cell-based; conditions: time 1-5 day, TDE = time-dependent effect
[19] = test system: BMMC; experiment: as §1, with “differentiation by measuring number of TRAP-positive multinucleated cells” for “differentiation”, “0.01 to 5” for “0.1”; assay type: functional, cell-based; conditions: dose 0.01-5 µM, time 5-7 day
[20] = test system: BMMC; experiment: Anti-osteoclastogenic activity in C57/BL6 mouse BMMC cells assessed as inhibition of RANKL-induced osteoclast differentiation by observing number of TRAP-positive multinucleated cells at 1 uM and compound added at different times and measured after 7 days in presence of M-CSF by TRAP staining based microscopic analysis relative to control; assay type: functional, cell-based; conditions: time 7.0 day, TDE = time-dependent effect
[21] = test system: BMMC; experiment: Anti-osteoclastogenic activity in C57/BL6 mouse BMMC cells assessed as inhibition of RANKL-stimulated osteoclastogenesis at 1 uM and compound added at day 1 to 3 (early stage) and measured after 7 days in presence of M-CSF by TRAP staining based microscopic analysis relative to control; assay type: functional; conditions: 168 h, time 7 day
[22] = test system: BMMC; experiment: Anti-osteoclastogenic activity in C57/BL6 mouse BMMC cells assessed as inhibition of RANKL-stimulated osteoclastogenesis at 1 uM and compound added at day 5 to 7 (late stage) and measured after 3 days in presence of M-CSF by TRAP staining based microscopic analysis relative to control; assay type: functional; conditions: 72 h, time 3 day
[23] = test system: BMMC; experiment: Anti-osteoclastogenic activity in C57/BL6 mouse BMMC cells assessed as reduction in RANKL-induced CTSK mRNA expression level at 0.1 uM incubated for 1 to 5 days in presence of M-CSF by qRT-PCR analysis; assay type: functional, cell-based; conditions: time 1-5 day, TDE = time-dependent effect
[24] = test system: BMMC; experiment: Anti-osteoclastogenic activity in C57/BL6 mouse BMMC cells assessed as reduction in RANKL-induced MMP-9 mRNA expression level at 0.1 uM incubated for 1 to 5 days in presence of M-CSF by qRT-PCR analysis; assay type: functional, cell-based; conditions: time 1-5 day, TDE = time-dependent effect
[25] = test system: BMMC; experiment: Anti-osteoclastogenic activity in C57/BL6 mouse BMMC cells assessed as reduction in RANKL-induced ATPase v0d2 mRNA expression level at 0.1 uM incubated for 1 to 5 days in presence of M-CSF by qRT-PCR analysis; assay type: functional, cell-based; conditions: time 1-5 day, TDE = time-dependent effect
[26] = test system: BMMC; experiment: Anti-osteoclastogenic activity in C57/BL6 mouse BMMC cells assessed as reduction in RANKL-induced TRAP protein expression level at 0.1 uM incubated for 1 to 3 days in presence of M-CSF by Western blot anlaysis; assay type: functional, cell-based; conditions: time 1-3 day
[27] = test system: BMMC; experiment: Anti-osteoclastogenic activity in C57/BL6 mouse BMMC cells assessed as reduction in RANKL-induced MMP-9 protein expression level at 0.1 uM incubated for 1 to 3 days in presence of M-CSF by Western blot anlaysis; assay type: functional, cell-based; conditions: time 1-3 day
[28] = test system: Mus musculus; experiment: Protective effect in ovariectomy induced osteoporosis C57BL/6 mouse model assessed as increase in bone volume/tissue volume (BV/TV) in RIO of femur at 1 mg/kg, ip and measured after 6 weeks by micro-CT analysis; assay type: functional
[29] = test system: Mus musculus; experiment: Protective effect in ovariectomy induced osteoporosis C57BL/6 mouse model assessed as increase in bone volume/tissue volume (BV/TV) in RIO of femur at 3 mg/kg, ip and measured after 6 weeks by micro-CT analysis; assay type: functional
[30] = test system: Mus musculus; experiment: Protective effect in ovariectomy induced osteoporosis C57BL/6 mouse model assessed as increase in bone surface/tissue volume (BS/TV) in RIO of femur at 1 to 3 mg/kg, ip and measured after 6 weeks by micro-CT analysis; assay type: functional, organism-based; conditions: dose 1-3 mg/kg
[31] = test system: Mus musculus; experiment: Protective effect in ovariectomy induced osteoporosis C57BL/6 mouse model assessed as increase in trabecular bone number (Tb.N) in RIO of femur at 1 to 3 mg/kg, ip and measured after 6 weeks by micro-CT analysis; assay type: functional, organism-based; conditions: dose 1-3 mg/kg
[32] = test system: Mus musculus; experiment: Protective effect in ovariectomy induced osteoporosis C57BL/6 mouse model assessed as increase in trabecular separation (Tb.Sp) in RIO of femur at 1 to 3 mg/kg, ip and measured after 6 weeks by micro-CT analysis; assay type: functional, organism-based; conditions: dose 1-3 mg/kg

Which results are given for `C=C(CCC=C(C)C)[C@H]1CC[C@]2(C)[C@@H]1[C@H](O)C[C@@H]1[C@@]3(C)Cc4cnc(C)nc4C(C)(C)[C@@H]3CC[C@]12C`?
inhibition [1]: inactive; inhibition [2]: Active; inhibition at 0.1 µM [3]: 100%; IC50 [4]: 10.3 nM; half-life at 1 µM [5]: 37.1 min; microsomal CLint at 1 µM [6]: 37.4 µL/min/mg; remaining at 1 h, 1 µM [7]: 31%; Tmax [8]: 4.8 min; Cmax [9]: 4180 ng/mL; AUC(0-t) at 24 h [10]: 1170 ng·h/mL; AUC(0-inf) [11]: 1170 ng·h/mL; Vd [12]: 0.413 L/kg; clearance [13]: 14.2 mL/min/kg; Tmax [14]: 1 h; AUC(0-t) at 24 h [15]: 1210 ng·h/mL; AUC(0-inf) [16]: 1230 ng·h/mL; bioavailability [17]: 10.5%; Activity [18]: Tde; inhibition [19]: Dose-Dependent Effect; inhibition [20]: Tde; inhibition at 1 µM [21]: 98.8%; inhibition at 1 µM [22]: 62.3%; Activity [23]: Tde; Activity [24]: Tde; Activity [25]: Tde; Activity [26]: Active; Activity [27]: Active; Activity [28]: 5.6%; Activity [29]: 23.2%; Activity [30]: Active; Activity [31]: Active; Activity [32]: Active
